Our source for the IC50 values is patent publication US8466155B2, “Pyrimidines” (Boehringer Ingelheim International GmbH, priority 2009, dated 2013).

The assay addresses T1, PTK2 (Homo sapiens, UniProt Q05397).
T1 construct: purchased Invitrogen PV3832
The assay is described as follows: PTK2 enzyme test, Assay 1 (DELFIA, PT60 antibody). The class given is biochemical. Particulars: 1 h pre-incubation, 1 h kinase reaction, values without *. On the procedure: This test uses active PTK2 enzyme (Invitrogen Code PV3832) and poly-Glu-Tyr (4:1, Sigma P-0275) as the kinase substrate. The kinase activity is detected through the phosphorylation of the substrate in a DELFIA™ assay. The phosphorylated substrate is detected with the europium-labelled phosphotyrosine antibody PT60 (Perkin Elmer, No.: AD00400).
In order to determine concentration-activity curves with PTK2-inhibitors the compounds are serially diluted in 10% DMSO/H20 and 10 μL of each dilution are placed in each well of a 96-well microtitre plate (clear plate with a U-shaped base, Greiner No. 650101) (the inhibitors are tested in duplicates) and mixed with 10 μL/well of PTK2 kinase (0.01 μg/well). PTK2 kinase has been correspondingly diluted beforehand with kinase dilution buffer (20 mM TRIS/HCl pH 7.5, 0.1 mM EDTA, 0.1 mM EGTA, 0.286 mM sodium orthovanadate, 10% glycerol with the addition of freshly prepared BSA (fraction V, 1 mg/mL) and DTT (1 mM)). The test compound and the PTK2 kinase are pre-incubated for 1 h at RT and shaken at 500 revolutions per min. The reaction is started by the addition of 10 μL/well poly (Glu,Tyr) substrate (25 μg/well poly (Glu, Tyr), 0.05 μg/well biotinylated poly (Glu,Tyr) dissolved in 250 mM TRIS/HCl pH 7.5, 9 mM DTT)—the final concentration of DMSO is 2%. Then 20 μL of ATP Mix (30 mM TRIS/HCl pH 7.5, 0.02% Brij, 0.2 mM sodium orthovanadate, 10 mM magnesium acetate, 0.1 mM EGTA, 1× phosphatase inhibitor cocktail 1 (Sigma, No.: P2850), 50 μM ATP (Sigma, No.: A3377; 15 mM stock solution)) are added. After 1 h of kinase reaction (the plates are shaken at 500 rpm), the reaction is stopped by the addition of 12 μL/well 100 mM EDTA, pH 8.0 and shaken for a further 5 min at RT (500 rpm). 55 μL of the reaction mixture are transferred into a streptavidin plate (Strepta Well High Bind (transparent, 96-well) made by Roche, No.: 11989685001) and incubated for 1 h at RT (shaking at 500 rpm). Then the microtitre plate is washed three times with 200 μL/well D-PBS (Invitrogen, No. 14190). 100 μL of a solution containing DELFIA Eu-N1 Anti-Phosphotyrosine PT60 antibody (Perkin Elmer, No.: AD0040, diluted 1:2000 in DELFIA test buffer (Perkin Elmer, No.: 1244-111)) is then added and the mixture is incubated for 1 h at RT (shaking at 500 rpm). Then the plate is washed three times with 200 μL/well DELFIA washing buffer (Perkin Elmer, No.: 1244-114), 200 μL/well strengthening solution (Perkin Elmer, No.: 1244-105) are added and the mixture is incubated for 10 min at RT (shaking at 300 rpm).
The time-delayed europium fluorescence is then measured in a microtitre plate reader (VICTOR^3, Perkin Elmer). […] Wells that contain test buffer instead of enzyme are used as a control of the background kinase activity.
The IC50 values are determined from analyses of the concentration activity by iterative calculation with the aid of a sigmoid curve analysis algorithm (FIFTY, based on GraphPAD Prism Version 3.03) with a variable Hill coefficient.

T1 sequence (Q05397 whole entry): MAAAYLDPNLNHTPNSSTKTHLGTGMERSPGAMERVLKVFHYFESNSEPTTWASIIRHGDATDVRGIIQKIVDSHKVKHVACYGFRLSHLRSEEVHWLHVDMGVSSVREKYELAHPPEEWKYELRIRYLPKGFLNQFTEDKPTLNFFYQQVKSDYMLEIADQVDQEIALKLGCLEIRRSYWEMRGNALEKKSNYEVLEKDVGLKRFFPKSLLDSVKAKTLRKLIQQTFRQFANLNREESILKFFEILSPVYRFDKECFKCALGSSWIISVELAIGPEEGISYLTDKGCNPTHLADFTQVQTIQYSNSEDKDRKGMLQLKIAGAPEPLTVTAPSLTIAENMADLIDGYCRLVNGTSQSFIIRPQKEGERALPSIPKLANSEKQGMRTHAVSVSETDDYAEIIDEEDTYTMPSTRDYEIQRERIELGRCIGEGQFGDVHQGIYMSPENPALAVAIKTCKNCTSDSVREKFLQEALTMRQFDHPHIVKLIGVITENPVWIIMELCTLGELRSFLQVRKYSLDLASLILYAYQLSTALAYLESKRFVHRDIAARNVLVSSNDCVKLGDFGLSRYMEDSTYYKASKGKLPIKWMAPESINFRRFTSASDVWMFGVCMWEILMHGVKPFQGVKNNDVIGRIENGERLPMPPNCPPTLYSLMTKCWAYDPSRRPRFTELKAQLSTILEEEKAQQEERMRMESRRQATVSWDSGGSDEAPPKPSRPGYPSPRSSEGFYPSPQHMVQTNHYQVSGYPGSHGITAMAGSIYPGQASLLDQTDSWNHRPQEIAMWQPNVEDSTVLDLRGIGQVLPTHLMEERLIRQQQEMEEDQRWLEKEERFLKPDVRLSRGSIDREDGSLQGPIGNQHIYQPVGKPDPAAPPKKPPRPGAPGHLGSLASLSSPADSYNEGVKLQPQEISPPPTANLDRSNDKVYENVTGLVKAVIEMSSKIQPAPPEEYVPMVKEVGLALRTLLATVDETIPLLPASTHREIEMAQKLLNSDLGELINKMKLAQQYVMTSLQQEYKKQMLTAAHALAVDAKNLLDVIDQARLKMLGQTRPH

`CONC(=O)c1cc(OC)c(Nc2ncc(C(F)(F)F)c(O[C@@H]3Cc4ccccc4[C@H]3N(C)S(C)(=O)=O)n2)cc1F` [Example 1] had an IC50 of 6 nM.

Regarding `COc1cc(C(=O)NCCN(C)C)c(F)cc1Nc1ncc(C(F)(F)F)c(O[C@@H]2Cc3ccccc3[C@H]2N(C)S(C)(=O)=O)n1` [Example 2], half-maximal inhibition (IC50) required 5 nM.

On to `COc1cc(C(=O)NCC(C)(C)C)c(F)cc1Nc1ncc(C(F)(F)F)c(O[C@@H]2Cc3ccccc3[C@H]2N(C)S(C)(=O)=O)n1` [Example 3], for which the IC50 is 3 nM.

The compound `COc1cc(C(=O)NCCn2ccnc2C)c(F)cc1Nc1ncc(C(F)(F)F)c(O[C@@H]2Cc3ccccc3[C@H]2N(C)S(C)(=O)=O)n1` [Example 4] had an IC50 of 5 nM.

Turning to `COc1cc(C(=O)NCCN2CCN(C)CC2)c(F)cc1Nc1ncc(C(F)(F)F)c(O[C@@H]2Cc3ccccc3[C@H]2N(C)S(C)(=O)=O)n1` [Example 5], inhibition was half-maximal at 4 nM (IC50).

`CNC(=O)c1cc(OC)c(Nc2ncc(C(F)(F)F)c(O[C@@H]3Cc4ccccc4[C@H]3N(C)S(C)(=O)=O)n2)cc1F` [Example 6] registered an IC50 of 17 nM.

In turn, `COc1cc(C(=O)N[C@H]2CC[C@H](N3CCN(CC4CC4)CC3)CC2)c(F)cc1Nc1ncc(C(F)(F)F)c(O[C@@H]2Cc3ccccc3[C@H]2N(C)S(C)(=O)=O)n1` [Example 7] yielded an IC50 of 8 nM.

With `COc1cc(C(=O)NCCCN(C)C)c(F)cc1Nc1ncc(C(F)(F)F)c(O[C@@H]2Cc3ccccc3[C@H]2N(C)S(C)(=O)=O)n1` [Example 8], the midpoint of inhibition, the IC50, lay at 4 nM.

`COc1cc(C(=O)NCC2CC2)c(F)cc1Nc1ncc(C(F)(F)F)c(O[C@@H]2Cc3ccccc3[C@H]2N(C)S(C)(=O)=O)n1` [Example 9] displayed a half-maximal inhibitory concentration (IC50) of 19 nM.

The compound `COc1cc(C(=O)N[C@H]2CC[C@H](O)CC2)c(F)cc1Nc1ncc(C(F)(F)F)c(O[C@@H]2Cc3ccccc3[C@H]2N(C)S(C)(=O)=O)n1` [Example 10] returned an IC50 of 7 nM.

As to `COc1cc(C(=O)NCC(O)CO)ccc1Nc1ncc(C(F)(F)F)c(O[C@@H]2Cc3ccccc3[C@H]2N(C)S(C)(=O)=O)n1` (stereo partly shown) [Example 12], the IC50 turned out to be 4 nM.

On to `COc1cc(C(=O)NCCn2ccnc2C)ccc1Nc1ncc(C(F)(F)F)c(O[C@@H]2Cc3ccccc3[C@H]2N(C)S(C)(=O)=O)n1` [Example 13], for which half-maximal inhibition (IC50) required 4 nM.

As for `COc1cc(C(=O)NCCN(C)C)ccc1Nc1ncc(C(F)(F)F)c(O[C@@H]2Cc3ccccc3[C@H]2N(C)S(C)(=O)=O)n1` [Example 14], the IC50 was 3 nM.

Regarding `COc1cc(C(=O)NCC(C)(C)C)ccc1Nc1ncc(C(F)(F)F)c(O[C@@H]2Cc3ccccc3[C@H]2N(C)S(C)(=O)=O)n1` [Example 15], inhibition was half-maximal at 11 nM (IC50).

`COc1cc(C(=O)NCCN2CCN(C)CC2)ccc1Nc1ncc(C(F)(F)F)c(O[C@@H]2Cc3ccccc3[C@H]2N(C)S(C)(=O)=O)n1` [Example 16]: the IC50 amounted to 4 nM.

As to `CNC(=O)c1ccc(Nc2ncc(C(F)(F)F)c(O[C@@H]3Cc4ccccc4[C@H]3N(C)S(C)(=O)=O)n2)c(OC)c1` [Example 17], the IC50 came out at 13 nM.

The compound `COc1cc(C(=O)N[C@H]2CC[C@H](N3CCN(CC4CC4)CC3)CC2)ccc1Nc1ncc(C(F)(F)F)c(O[C@@H]2Cc3ccccc3[C@H]2N(C)S(C)(=O)=O)n1` [Example 18] had an IC50 of 4 nM.

Turning to `COc1cc(C(=O)NN2CCN(C)CC2)ccc1Nc1ncc(C(F)(F)F)c(O[C@@H]2Cc3ccccc3[C@H]2N(C)S(C)(=O)=O)n1` [Example 19], the IC50 came to 4 nM.

Compound `COc1cc(C(=O)NCCCN(C)C)ccc1Nc1ncc(C(F)(F)F)c(O[C@@H]2Cc3ccccc3[C@H]2N(C)S(C)(=O)=O)n1` [Example 20] yielded an IC50 of 3 nM.

On to `COc1cc(C(=O)NCC2CC2)ccc1Nc1ncc(C(F)(F)F)c(O[C@@H]2Cc3ccccc3[C@H]2N(C)S(C)(=O)=O)n1` [Example 21], for which the IC50 amounted to 12 nM.

`COc1cc(C(=O)N[C@H]2CC[C@H](O)CC2)ccc1Nc1ncc(C(F)(F)F)c(O[C@@H]2Cc3ccccc3[C@H]2N(C)S(C)(=O)=O)n1` [Example 22] came in with an IC50 of 8 nM.

Compound `COc1cc(C(=O)NC2CCN(C)CC2)c(F)cc1Nc1ncc(C(F)(F)F)c(O[C@@H]2Cc3ccccc3[C@H]2NS(C)(=O)=O)n1` [Example 24, 2-fluoro-4-[4-((1R,2R)-1-methanesulphonylamino-indan-2-yloxy)-5-trifluoromethyl-pyrimidin-2-ylamino]-5-methoxy-N-(1-methyl-piperidin-4-yl)-benzamide] registered an IC50 of 1 nM.

`COc1cc(C(=O)NC2CCN(C)CC2)c(F)cc1Nc1ncc(C(F)(F)F)c(O[C@@H]2Cc3ccccc3[C@H]2N(C)S(C)(=O)=O)n1` [Example 25, 2-fluoro-4-{4-[(1R,2R)-1-(methanesulphonyl-methyl-amino)-indan-2-yloxy]-5-trifluoromethyl-pyrimidin-2-ylamino}-5-methoxy-N-(1-methyl-piperidin-4-yl)-benzamide] displayed an IC50 of 2 nM.

`COc1cc(C(=O)NC2CCN(C)CC2)ccc1Nc1ncc(C(F)(F)F)c(O[C@@H]2Cc3ccccc3[C@H]2N(C)S(C)(=O)=O)n1` [Example 27, 4-{4-[(1R,2R)-1-(methanesulphonyl-methyl-amino)-indan-2-yloxy]-5-trifluoromethyl-pyrimidin-2-ylamino}-3-methoxy-N-(1-methyl-piperidin-4-yl)-benzamide] displayed an IC50 of 1 nM.

`COc1cc(C(=O)NC2CCN(C)CC2)c(F)cc1Nc1ncc(C(F)(F)F)c(O[C@@H]2CCC[C@H]2NS(C)(=O)=O)n1` [Example 28, 2-fluoro-4-[4-((1R,2R)-2-methanesulphonylamino-cyclopentyloxy)-5-trifluoromethyl-pyrimidin-2-ylamino]-5-methoxy-N-(1-methyl-piperidin-4-yl)-benzamide]: the IC50 was found to be 2 nM.

As for `COc1cc(C(=O)N[C@H]2CCN(C)C[C@@H]2OC)ccc1Nc1ncc(C(F)(F)F)c(O[C@@H]2Cc3ccccc3[C@H]2N(C)S(C)(=O)=O)n1` [Example 29, 4-{4-[(1R,2R)-1-(methanesulphonyl-methyl-amino)-indan-2-yloxy]-5-trifluoromethyl-pyrimidin-2-ylamino}-3-methoxy-N-((3S,4S)-3-methoxy-1-methyl-piperidin-4-yl)-benzamide], the IC50 was 3 nM.

As for `COc1cc(C(=O)N[C@H]2CCN(C)C[C@@H]2OC)c(F)cc1Nc1ncc(C(F)(F)F)c(O[C@@H]2Cc3ccccc3[C@H]2N(C)S(C)(=O)=O)n1` [Example 31, 2-fluoro-4-{4-[(1R,2R)-1-(methanesulphonyl-methyl-amino)-indan-2-yloxy]-5-trifluoromethyl-pyrimidin-2-ylamino}-5-methoxy-N-((3S,4S)-3-methoxy-1-methyl-piperidin-4-yl)-benzamide], it took 3 nM to reach half-maximal inhibition (IC50).

For the compound `COc1cc(C(=O)NC2CCN(C)CC2)ccc1Nc1ncc(C(F)(F)F)c(O[C@H]2Cc3ccccc3[C@@H]2N(C)S(C)(=O)=O)n1` [Example 32], the IC50 was 400 nM.

In turn, `COc1cc(C(=O)NCCN2CCN(C)CC2)c(Cl)cc1Nc1ncc(Cl)c(O[C@@H]2Cc3ccccc3[C@H]2N(C)S(C)(=O)=O)n1` [Example 34] yielded an IC50 of 2 nM.

For `COc1cc(C(=O)NCCn2ccnc2C)c(Cl)cc1Nc1ncc(Cl)c(O[C@@H]2Cc3ccccc3[C@H]2N(C)S(C)(=O)=O)n1` [Example 35], half-maximal inhibition (IC50) was put at 2 nM.

Compound `COc1cc(C(=O)NC[C@H](O)CO)c(Cl)cc1Nc1ncc(Cl)c(O[C@@H]2Cc3ccccc3[C@H]2N(C)S(C)(=O)=O)n1` [Example 36] returned an IC50 of 3 nM.

Turning to `COc1cc(C(=O)N(C)C)c(Cl)cc1Nc1ncc(Cl)c(O[C@@H]2Cc3ccccc3[C@H]2N(C)S(C)(=O)=O)n1` [Example 37], the IC50 is 28 nM.

The compound `CONC(=O)c1cc(OC)c(Nc2ncc(Cl)c(O[C@@H]3Cc4ccccc4[C@H]3N(C)S(C)(=O)=O)n2)cc1Cl` [Example 38] registered an IC50 of 1 nM.

Consider `COc1cc(C(=O)NCC(C)(C)C)c(Cl)cc1Nc1ncc(Cl)c(O[C@@H]2Cc3ccccc3[C@H]2N(C)S(C)(=O)=O)n1` [Example 39], for which the IC50 came out at 6 nM.
